# Assay results as given in US20150306096A1, “8'-HYDROXY-DIHYDROERGOTAMINE COMPOUNDS AND COMPOSITIONS” (MAP Pharmaceuticals, Inc., priority 2012, published 2015).
# Read-outs that look alike come from different tables or passages of the source.
# Columns and labels:
# [1] = cited from earlier work
# [2] = target: T1, human Dopamine D2L receptor (Homo sapiens, UniProt P14416); test: cAMP HTRF functional assay (agonist/antagonist); format: cell-based
# T1 construct: expressed in transfected cells; host or cells: CHO-K1
# T1 sequence (P14416 whole entry): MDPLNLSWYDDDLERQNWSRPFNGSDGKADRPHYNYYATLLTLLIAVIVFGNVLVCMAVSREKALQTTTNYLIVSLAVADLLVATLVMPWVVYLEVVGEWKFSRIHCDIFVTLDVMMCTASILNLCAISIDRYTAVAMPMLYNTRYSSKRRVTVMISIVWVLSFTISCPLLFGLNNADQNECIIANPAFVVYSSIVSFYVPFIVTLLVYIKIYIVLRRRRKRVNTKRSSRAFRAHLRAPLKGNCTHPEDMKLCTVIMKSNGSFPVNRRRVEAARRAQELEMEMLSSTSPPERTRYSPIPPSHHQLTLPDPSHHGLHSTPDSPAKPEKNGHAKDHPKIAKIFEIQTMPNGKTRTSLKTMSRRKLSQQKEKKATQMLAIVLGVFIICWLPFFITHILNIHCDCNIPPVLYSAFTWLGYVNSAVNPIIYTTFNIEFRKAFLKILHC
# Experimental: (§1) Functional profiling of agonist and antagonist activities of 8′-OH DHE on human Adrenergic α1D, Dopamine D2L, and Serotonin 5-HT1B, 5-HT1D, 5-HT1F, 5-HT3, 5-HT4e and 5-HT5A receptors (compared against the parent (DHE) molecule) was carried out as follows.
# (§2) The SPA 35S-GTPγS tests were conducted with Euroscreen membrane preparations […]. The HTRF assays were conducted with recombinant cell lines. The receptor accession numbers, cellular background and reference compounds are as reported below in Table 10.
# (2) DHE and 8′-OH DHE were tested for agonist and antagonist activity at the human Dopamine D2L receptor using cAMP HTRF assay (in triplicate) at the following nanomolar concentrations: […]
# (§3) Agonist activity of the test compounds was expressed as a percentage of the activity of the reference agonist at its EC100 concentration. Antagonist activity of the test compounds was expressed as a percentage of the inhibition of the reference agonist activity at its EC80 concentration. Dose-response data from the test compounds were analyzed with XLfit (IDBS) software using nonlinear regression applied to a sigmoidal dose-response model and the following equation: […]
# [3] = target: T2, human Serotonin 5-HT1F receptor (Homo sapiens, UniProt P30939); test: cAMP HTRF functional assay (agonist/antagonist); format: cell-based
# T2 construct: expressed in transfected cells; host or cells: CHO-K1
# T2 sequence (P30939 whole entry): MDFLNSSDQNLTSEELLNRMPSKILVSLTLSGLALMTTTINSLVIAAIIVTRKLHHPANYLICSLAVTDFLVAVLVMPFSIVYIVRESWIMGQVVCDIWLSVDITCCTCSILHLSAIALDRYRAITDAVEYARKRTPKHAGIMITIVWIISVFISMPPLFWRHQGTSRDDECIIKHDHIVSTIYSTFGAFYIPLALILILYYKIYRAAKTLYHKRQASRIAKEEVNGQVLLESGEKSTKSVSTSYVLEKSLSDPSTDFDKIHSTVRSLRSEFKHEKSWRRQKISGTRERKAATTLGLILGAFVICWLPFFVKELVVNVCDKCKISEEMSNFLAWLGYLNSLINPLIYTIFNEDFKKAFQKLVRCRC
# Experimental: as §1, §2
# (§4) (4) DHE and 8′-OH DHE were tested for agonist and antagonist activity at the human Serotonin 5-HT1F and Serotonin 5-HT4E receptors using cAMP HTRF assay (in triplicate) at the following nanomolar concentrations: […]
# as §3
# [4] = target: T3, human Serotonin 5-HT4e receptor (Homo sapiens, UniProt Q13639); test: cAMP HTRF functional assay (agonist/antagonist); format: cell-based
# T3 construct: expressed in transfected cells; host or cells: CHO-K1 (transient)
# T3 sequence (Q13639 1-378 isoform Q13639-5): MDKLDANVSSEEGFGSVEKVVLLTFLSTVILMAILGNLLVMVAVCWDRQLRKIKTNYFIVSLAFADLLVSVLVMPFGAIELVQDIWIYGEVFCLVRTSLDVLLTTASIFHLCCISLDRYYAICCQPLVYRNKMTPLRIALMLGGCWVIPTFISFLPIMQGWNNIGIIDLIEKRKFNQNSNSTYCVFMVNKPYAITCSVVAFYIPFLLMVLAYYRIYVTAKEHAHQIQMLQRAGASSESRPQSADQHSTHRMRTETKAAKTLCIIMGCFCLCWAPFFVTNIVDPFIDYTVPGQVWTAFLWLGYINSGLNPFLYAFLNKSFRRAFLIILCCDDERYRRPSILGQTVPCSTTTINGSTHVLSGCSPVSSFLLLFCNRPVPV
# Experimental: as §1, §2, §4, §3
# [5] = target: T4, human Serotonin 5-HT3 receptor (Homo sapiens, UniProt P46098); test: Aequorin functional assay (agonist/antagonist); format: cell-based
# T4 construct: expressed in transfected cells; host or cells: CHO-K1 or HEK-293, coexpressing mitochondrial apoaequorin
# T4 sequence (P46098 24-478): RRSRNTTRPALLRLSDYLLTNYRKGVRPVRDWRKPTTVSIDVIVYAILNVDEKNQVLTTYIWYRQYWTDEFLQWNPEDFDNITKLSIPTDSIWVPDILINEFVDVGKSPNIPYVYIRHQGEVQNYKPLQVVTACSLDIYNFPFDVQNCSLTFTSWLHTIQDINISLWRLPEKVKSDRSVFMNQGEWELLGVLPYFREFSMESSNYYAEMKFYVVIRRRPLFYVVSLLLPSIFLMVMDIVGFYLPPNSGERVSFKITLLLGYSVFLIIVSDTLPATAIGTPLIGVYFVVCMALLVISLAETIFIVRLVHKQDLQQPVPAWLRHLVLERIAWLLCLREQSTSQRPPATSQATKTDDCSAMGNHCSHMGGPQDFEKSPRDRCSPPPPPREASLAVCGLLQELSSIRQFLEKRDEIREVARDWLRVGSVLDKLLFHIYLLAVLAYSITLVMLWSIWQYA
# Experimental: as §1, §2
# (1) DHE and 8′-OH DHE were tested for agonist and antagonist activity at the human Adrenergic α1D, Serotonin 5-HT3 and Serotonin 5-HT5A receptors using aequorin assay (in triplicate) at the following nanomolar concentrations:
# (5) DHE was tested for agonist and antagonist activity at the human Adrenergic α1D, Serotonin 5-HT3 and Serotonin 5-HT5A receptors using aequorin assay (in triplicate), and at the human Dopamine D2L, Serotonin 5-HT1F and Serotonin 5-HT4E receptors using cAMP HTRF assay (in triplicate) at the following nanomolar concentrations:
# (6) 8′-OH DHE was tested for agonist and antagonist activity at the human Adrenergic α1D, Serotonin 5-HT3 and Serotonin 5-HT5A receptors using aequorin assay (in triplicate), at the human Dopamine D2L, Serotonin 5-HT1F and Serotonin 5-HT4E receptors using cAMP HTRF assay (in triplicate), and at the human Serotonin 5-HT1B and Serotonin 5-HT1D receptors using GTPγS assay (in triplicate) at the following nanomolar concentrations:
# CHO-K1 or HEK-293 cells coexpressing mitochondrial apoaequorin and recombinant human […], or recombinant human Serotonin 5-HT3 receptor, or recombinant human Serotonin 5-HT5A receptor grown to mid-log phase in culture media without antibiotics were detached with PBS-EDTA, centrifuged and resuspended in assay buffer (DMEMHAM's F12 with HEPES, without phenol red+0.1% BSA protease free) at a concentration of 1×10^6 cells/mL. Cells were incubated at RT for at least 4 hours with coelenterazine h. The reference agonist was tested to evaluate performance of the assay on each day of the test and to determine EC50. For agonist testing, 50 μL of cell suspension was mixed with 50 μL of test compound or reference agonist in a 96-well plate. The resulting emission of light was recorded using Hamamatsu Functional Drug Screening System 6000 (FDSS 6000 luminometer). For antagonist testing, 100 μL of the reference agonist at its EC80 was injected on the mix of cells and test compounds, following an incubation of 15 minutes after the first injection. The resulting emission of light was recorded using the FDSS 6000 luminometer. To standardize the emission of recorded light (determination of the ‘100% signal’) across plates and across different experiments, some of the wells contained 100 μM digitonin or a saturating concentration of ATP (20 μM).
# as §3
SMILES,metabolite concentration relative to parent DHE ([1]; previous studies),"EC50 ([2]; Dopamine D2L, cAMP HTRF, read-out: Functional activity (agonist))",Agonist and antagonist activity [3],"EC50 ([4]; Serotonin 5-HT4e, cAMP HTRF, read-out: Functional activity (agonist))","IC50 ([5]; Serotonin 5-HT3, aequorin, read-out: Functional activity (antagonist))",serum half-life ([1]; serum),EC50 [2],EC50 [4],IC50 [5]
"CN1C[C@H](C(=O)N[C@]2(C)O[C@@]3(O)[C@@H]4CCC(O)N4C(=O)[C@H](Cc4ccccc4)N3C2=O)C[C@@H]2c3cccc4[nH]cc(c34)C[C@H]21 (stereo partly shown) [8′-OH DHE, 8′-Hydroxy-Dihydroergotamine]",5 to 7 times,1.61 nM,inactive,109 nM,> 10000 nM,,,,
"CN1C[C@H](C(=O)N[C@]2(C)O[C@@]3(O)[C@@H]4CCCN4C(=O)[C@H](Cc4ccccc4)N3C2=O)C[C@@H]2c3cccc4[nH]cc(c34)C[C@H]21 [DHE, Dihydroergotamine]",,,inactive,,,10 to 13 h,0.835 nM,105 nM,3850 nM
